Reference: patent publication US8952024B2, “Herbicidal pyrimidone derivatives” (E I du Pont de Nemours and Company, priority 2009, dated 2015)

Key:
Type in all cases: in vivo
[1] = tested on: barnyardgrass (Echinochloa crus-galli); test: Test A pre-/postemergence plant response; settings: for Barnyardgrass plant response rating: visual injury, 0 to 100 scale (0 no effect, 100 complete control), approx. ten days
Procedure, shortened: (§1)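 Formulated test chemicals (non-phytotoxic solvent, surfactant) were sprayed onto soil right after planting and simultaneously onto young plants at one to two leaves, 2 to 10 cm tall. Plants stayed in the greenhouse about ten days; injury was then visually scored against untreated controls, from 0 (no effect) to 100 (complete control).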

corn (Zea mays) = test: Test A pre-/postemergence plant response; settings: for Corn plant response rating: visual injury, 0 to 100 scale (0 no effect, 100 complete control), approx. ten days
Procedure, shortened: as §1

[2] = tested on: giant foxtail (Setaria faberii); test: Test A pre-/postemergence plant response; settings: for Foxtail, Giant plant response rating: visual injury, 0 to 100 scale (0 no effect, 100 complete control), approx. ten days
Procedure, shortened: as §1

[3] = tested on: large crabgrass (Digitaria sanguinalis); test: Test A pre-/postemergence plant response; settings: for Crabgrass, Large plant response rating: visual injury, 0 to 100 scale (0 no effect, 100 complete control), approx. ten days
Procedure, shortened: as §1

[4] = tested on: morningglory (Ipomoea spp.); test: Test A pre-/postemergence plant response; settings: for Morningglory plant response rating: visual injury, 0 to 100 scale (0 no effect, 100 complete control), approx. ten days
Procedure, shortened: as §1

[5] = tested on: pigweed (Amaranthus retroflexus); test: Test A pre-/postemergence plant response; settings: for Pigweed plant response rating: visual injury, 0 to 100 scale (0 no effect, 100 complete control), approx. ten days
Procedure, shortened: as §1

[6] = tested on: velvetleaf (Abutilon theophrasti); test: Test A pre-/postemergence plant response; settings: for Velvetleaf plant response rating: visual injury, 0 to 100 scale (0 no effect, 100 complete control), approx. ten days
Procedure, shortened: as §1

[7] = tested on: wheat (Triticum aestivum); test: Test A pre-/postemergence plant response; settings: for Wheat plant response rating: visual injury, 0 to 100 scale (0 no effect, 100 complete control), approx. ten days
Procedure, shortened: as §1

[8] = tested on: barnyardgrass (Echinochloa crus-galli); test: Test B flooded paddy test; settings: for Plant response rating, Barnyardgrass: Flood (flooded paddy test), 13 to 15 days; for Barnyardgrass plant response rating: Flood, 31 g ai/ha, scale 0 to 100 (0 no effect, 100 complete control)
Procedure, shortened: (§2)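 Each compound is added to standing floodwater (3 cm above soil, maintained) in pots of 2-leaf-stage plants; greenhouse exposure lasts 13–15 d before visual comparison with controls on a 0–100 control scale.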

[9] = tested on: ducksalad (Heteranthera limosa); test: Test B flooded paddy test; settings: for Plant response rating, Ducksalad: Flood (flooded paddy test), 125 g ai/ha, scale 0 to 100, 0 is no effect, 100 is complete control, 13 to 15 days; for Ducksalad plant response rating: Flood, 31 g ai/ha, scale 0 to 100 (0 no effect, 100 complete control)
Procedure, shortened: as §2

rice (Oryza sativa) = test: Test B flooded paddy test; settings: for Plant response rating, Rice: Flood (flooded paddy test), 13 to 15 days; for Rice plant response rating: Flood, 31 g ai/ha, scale 0 to 100 (0 no effect, 100 complete control)
Procedure, shortened: as §2

[10] = tested on: umbrella sedge (Cyperus difformis); test: Test B flooded paddy test; settings: for Plant response rating, Sedge, Umbrella: Flood (flooded paddy test), 13 to 15 days; for Sedge, Umbrella plant response rating: Flood, 31 g ai/ha, scale 0 to 100 (0 no effect, 100 complete control)
Procedure, shortened: as §2

[11] = Postemergence, 125 g ai/ha, 0 to 100 scale where 0 is no effect and 100 is complete control
[12] = Preemergence, 125 g ai/ha, 0 to 100 scale, 0 = no effect, 100 = complete control
[13] = Preemergence, 500 g ai/ha, 0 to 100 scale, 0 = no effect, 100 = complete control
[14] = 125 g ai/ha, scale 0 to 100, 0 is no effect, 100 is complete control
[15] = 250 g ai/ha, flooded paddy test, visual rating on 0 to 100 scale (0 no effect, 100 complete control) after 13 to 15 days
[16] = 62 g ai/ha, scale of 0 to 100 where 0 is no effect and 100 is complete control

CCOCCn1c(-c2cc(F)cc(F)c2)ncc(C(=O)C2=C(O)CCCC2=O)c1=O [Compound 182]
Plant response rating, Barnyardgrass [1, 11]: 70 | Barnyardgrass plant response rating ([1]; Postemergence, 500 g ai/ha): 90 | Plant response rating, Barnyardgrass [1, 12]: 70 | Plant response rating, Barnyardgrass [1, 13]: 90 | Plant response rating, Corn (corn (Zea mays); [11]): 0 | Corn plant response rating (corn (Zea mays); Postemergence, 500 g ai/ha): 20 | Plant response rating, Corn (corn (Zea mays); [12]): 0 | Plant response rating, Corn (corn (Zea mays); [13]): 20 | Plant response rating, Foxtail, Giant [2, 11]: 50 | Foxtail, Giant plant response rating ([2]; Postemergence, 500 g ai/ha): 80 | Plant response rating, Foxtail, Giant [2, 12]: 50 | Plant response rating, Foxtail, Giant [2, 13]: 80 | Plant response rating, Crabgrass, Large [3, 11]: 80 | Crabgrass, Large plant response rating ([3]; Postemergence, 500 g ai/ha): 90 | Plant response rating, Crabgrass, Large [3, 12]: 100 | Plant response rating, Crabgrass, Large [3, 13]: 100 | Plant response rating, Morningglory [4, 11]: 100 | Morningglory plant response rating ([4]; Postemergence, 500 g ai/ha): 100 | Plant response rating, Morningglory [4, 12]: 70 | Plant response rating, Morningglory [4, 13]: 80 | Plant response rating, Pigweed [5, 11]: 80 | Pigweed plant response rating ([5]; Postemergence, 500 g ai/ha): 100 | Plant response rating, Pigweed [5, 12]: 90 | Plant response rating, Pigweed [5, 13]: 100 | Plant response rating, Velvetleaf [6, 11]: 100 | Velvetleaf plant response rating ([6]; Postemergence, 500 g ai/ha): 100 | Plant response rating, Velvetleaf [6, 12]: 70 | Plant response rating, Velvetleaf [6, 13]: 100 | Plant response rating, Wheat [7, 11]: 0 | Wheat plant response rating ([7]; Postemergence, 500 g ai/ha): 50 | Plant response rating, Wheat [7, 12]: 0 | Plant response rating, Wheat [7, 13]: 50 | Plant response rating, Barnyardgrass [8, 14]: 0 | Barnyardgrass plant response rating [8]: 0 | Plant response rating, Ducksalad [9]: 85 | Ducksalad plant response rating [9]: 60 | Plant response rating, Rice (rice (Oryza sativa); [14]): 0 | Rice plant response rating (rice (Oryza sativa)): 0 | Plant response rating, Sedge, Umbrella [10, 14]: 75 | Sedge, Umbrella plant response rating [10]: 50

Cc1ccc(-n2c(-c3cccc(C)c3)ncc(C(=O)C3=C(O)CCCC3=O)c2=O)cc1 [Compound 211]
Plant response rating, Barnyardgrass [1, 11]: 50 | Barnyardgrass plant response rating ([1]; Postemergence, 500 g ai/ha): 100 | Plant response rating, Barnyardgrass [1, 12]: 10 | Plant response rating, Barnyardgrass [1, 13]: 70 | Plant response rating, Corn (corn (Zea mays); [11]): 0 | Corn plant response rating (corn (Zea mays); Postemergence, 500 g ai/ha): 20 | Plant response rating, Corn (corn (Zea mays); [12]): 0 | Plant response rating, Corn (corn (Zea mays); [13]): 0 | Plant response rating, Foxtail, Giant [2, 11]: 50 | Foxtail, Giant plant response rating ([2]; Postemergence, 500 g ai/ha): 80 | Plant response rating, Foxtail, Giant [2, 12]: 20 | Plant response rating, Foxtail, Giant [2, 13]: 50 | Plant response rating, Crabgrass, Large [3, 11]: 40 | Crabgrass, Large plant response rating ([3]; Postemergence, 500 g ai/ha): 80 | Plant response rating, Crabgrass, Large [3, 12]: 10 | Plant response rating, Crabgrass, Large [3, 13]: 90 | Plant response rating, Morningglory [4, 11]: 70 | Morningglory plant response rating ([4]; Postemergence, 500 g ai/ha): 100 | Plant response rating, Morningglory [4, 12]: 0 | Plant response rating, Morningglory [4, 13]: 10 | Plant response rating, Pigweed [5, 11]: 70 | Pigweed plant response rating ([5]; Postemergence, 500 g ai/ha): 90 | Plant response rating, Pigweed [5, 12]: 40 | Plant response rating, Pigweed [5, 13]: 60 | Plant response rating, Velvetleaf [6, 11]: 60 | Velvetleaf plant response rating ([6]; Postemergence, 500 g ai/ha): 70 | Plant response rating, Velvetleaf [6, 12]: 30 | Plant response rating, Velvetleaf [6, 13]: 60 | Plant response rating, Wheat [7, 11]: 0 | Wheat plant response rating ([7]; Postemergence, 500 g ai/ha): 0 | Plant response rating, Wheat [7, 12]: 0 | Plant response rating, Wheat [7, 13]: 0 | Plant response rating, Flood, Barnyardgrass [8, 15]: 35 | Plant response rating, Barnyardgrass [8, 16]: 0 | Plant response rating, Barnyardgrass [8, 14]: 25 | Barnyardgrass plant response rating [8]: 0 | Plant response rating, Flood, Ducksalad [9, 15]: 85 | Plant response rating, Ducksalad [9]: 85 | Ducksalad plant response rating [9]: 50 | Plant response rating, Flood, Rice (rice (Oryza sativa); [15]): 15 | Plant response rating, Rice (rice (Oryza sativa); [16]): 0 | Plant response rating, Rice (rice (Oryza sativa); [14]): 0 | Rice plant response rating (rice (Oryza sativa)): 0 | Plant response rating, Flood, Sedge, Umbrella [10, 15]: 80 | Plant response rating, Sedge, Umbrella [10, 16]: 0 | Plant response rating, Sedge, Umbrella [10, 14]: 70 | Sedge, Umbrella plant response rating [10]: 0
